Results as given in patent US7371766B2, “Curcumin analogs with anti-tumor and anti-angiogenic properties” (Emory University, priority 1999, dated 2008).

Key:
[1] = tested on: Vascular Endothelial Growth Factor (VEGF) production by human prostate cancer cell line DU-145; experiment: VEGF ELISA, DU-145; type: cell-based; details: for VEGF (% of DMSO): DMSO = 100%
[2] = tested on: Vascular Endothelial Growth Factor (VEGF) production by human prostate cancer cell line PC-3; experiment: VEGF ELISA, PC-3; type: cell-based; details: for VEGF (% of DMSO): DMSO = 100%
[3] = tested on: Vascular Endothelial Growth Factor (VEGF) production by human melanoma cell line RPMI-7951; experiment: VEGF ELISA, RPMI-7951; details: RPMI-7951; for VEGF ELISA: DMSO control 3713
[4] = tested on: RPMI-7951 human melanoma; experiment: Neutral Red Assay, cell viability, RPMI-7951; details: RPMI-7951; for Cell Viability: DMSO = 100; for Neutral Red Uptake, %: 72 hours
[5] = tested on: Tissue Factor (TF) production by human melanoma cell line RPMI-7951; experiment: TF ELISA, RPMI-7951; type: cell-based
Procedure: IMUBIND Tissue Factor ELISA Kit (American Diagnostica Inc, Greenwich, Conn.) was used to determine TF concentration in each sample. The ELISA was carried out according to manufacturer's procedure.

[6] = 20 μM, mean of triplicate and S.D., DMSO 18760 ± 2633
[7] = Table 4, 20 μM, mean of triplicate and S.D.
[8] = 20 μM, mean of triplicate and S.D., DMSO 2103 ± 100
[9] = Table 5, 5 μM, DMSO control 7054
[10] = Table 5, 20 μM, DMSO control 7054
[11] = 5 μM, DMSO control 4197 (EF-25: 1045)

COc1ccccc1C1CC(=O)CC(c2ccccc2OC)O1 (stereo not shown) [BA-8]
VEGF (% of DMSO) ([1]; 20 μM): (218%) | VEGF [1, 6]: 40883 ± 6639 pg/mL | VEGF ([1]; Table 4, 20 μM, DMSO = 100): 218% | VEGF [1, 7]: 40883 ± 6639 pg/mL | VEGF (% of DMSO) ([2]; 20 μM): (78%) | VEGF [2, 8]: 1648 ± 229 pg/mL | VEGF ([2]; Table 4, 20 μM, DMSO = 100): 78% | VEGF [2, 7]: 1648 ± 229 pg/mL

O=S(=O)(NCc1ccccc1)NCc1ccccc1 [Compound A272]
VEGF ([1]; Table 4, 20 μM, DMSO = 100): 129% | VEGF [1, 7]: 24155 ± 4635 pg/mL | VEGF ([2]; Table 4, 20 μM, DMSO = 100): 89% | VEGF [2, 7]: 1864 ± 339 pg/mL

O=S(=O)(/C=C/c1ccccc1)/C=C/c1ccccc1 [EF12, 3,5-Bisbenzylidenesulfone]
VEGF ([3]; 20 μM, DMSO = 100): 70% | Cell Viability ([4]; 20 μM): 92%

COc1ccc(CNC(=O)NCc2ccc(OC)c(OC)c2)cc1OC [Compound A277b]
VEGF ([1]; Table 4, 20 μM, DMSO = 100): 145% | VEGF [1, 7]: 27124 ± 1346 pg/mL | VEGF ([2]; Table 4, 20 μM, DMSO = 100): 89% | VEGF [2, 7]: 1868 ± 38 pg/mL

COc1ccc(CCC(O)CCc2ccc(OC)c(OC)c2)cc1OC [B]
VEGF (% of DMSO) ([1]; 20 μM): (82%) | VEGF [1, 6]: 15321 ± 5607 pg/mL | VEGF ([1]; Table 4, 20 μM, DMSO = 100): 82% | VEGF [1, 7]: 15321 ± 5607 pg/mL | VEGF (% of DMSO) ([2]; 20 μM): (99%) | VEGF [2, 8]: 2168 ± 279 pg/mL | VEGF ([2]; Table 4, 20 μM, DMSO = 100): 103% | VEGF [2, 7]: 2168 ± 279 pg/mL

COc1ccc(CCC(=O)CCc2ccc(OC)c(OC)c2)cc1OC [MD279U, 1,5-Bis(3,4-dimethoxyphenyl)penta-3-one]
TF ([5]; 5 μM, DMSO = 100): 102% | TF ELISA ([5]; 5 μM, DMSO control 7054): 7200 pg/ml/well | TF ([5]; 20 μM, DMSO = 100): 75% | TF ELISA ([5]; 20 μM, DMSO control 7054): 5316 pg/ml/well | TF [5, 9]: 7200 pg/mL | TF [5, 10]: 5316 pg/mL | VEGF ([3]; 5 μM, DMSO = 100): 28% | VEGF ELISA ([3]; 5 μM): 2511 pg/ml/well | VEGF [3, 11]: 1197 pg/mL | VEGF ([3]; 20 μM, DMSO = 100): 18% | VEGF ELISA ([3]; 20 μM): 779 pg/ml/well | VEGF ([3]; 20 μM, DMSO control 4197): 1179 pg/mL | Neutral Red Uptake, % ([4]; 5 μM): 100 % of control | Cell Viability ([4]; 5 μM): 112% | Neutral Red Uptake, % ([4]; 20 μM): 100 % of control | Cell Viability ([4]; 20 μM): 113%

COc1cc(CCC(=O)CC(=O)CCc2ccc(O)c(OC)c2)ccc1O [Compound A232]
VEGF ([1]; Table 4, 20 μM, DMSO = 100): 135% | VEGF [1, 7]: 25308 ± 4722 pg/mL | VEGF ([2]; Table 4, 20 μM, DMSO = 100): 93% | VEGF [2, 7]: 1955 ± 437 pg/mL | VEGF ([3]; 20 μM, DMSO = 100): 40% | Cell Viability ([4]; 20 μM): 78%

COc1ccc(C=CC(=O)C=Cc2ccc(OC)cc2)cc1 [BA-4]
TF ([5]; 5 μM, DMSO = 100): 100% | TF ([5]; 20 μM, DMSO = 100): 30% | TF [5, 9]: 7043 pg/mL | TF [5, 10]: 2120 pg/mL | VEGF ([3]; 5 μM, DMSO = 100): 112% | VEGF [3, 11]: 4708 pg/mL | VEGF ([3]; 20 μM, DMSO = 100): 80% | VEGF ([3]; 20 μM, DMSO control 4197): 3348 pg/mL | Cell Viability ([4]; 5 μM): 90% | Cell Viability ([4]; 20 μM): 84%

COc1cc(CC2CCCC(Cc3ccc(O)c(OC)c3)C2O)ccc1O (stereo not shown) [Compound A231L]
VEGF ([1]; Table 4, 20 μM, DMSO = 100): 149% | VEGF [1, 7]: 27927 ± 4466 pg/mL | VEGF ([2]; Table 4, 20 μM, DMSO = 100): 80% | VEGF [2, 7]: 1687 ± 250 pg/mL | VEGF ([3]; 20 μM, DMSO = 100): 25% | Cell Viability ([4]; 20 μM): 77%

COc1ccc(CCC(O)CCc2ccc(OC)c(OC)c2)cc1OC [MD279L, 1,5-Bis(3,4-dimethoxyphenyl)penta-3-ol]
TF ([5]; 5 μM, DMSO = 100): 82% | TF ELISA ([5]; 5 μM, DMSO control 7054): 5791 pg/ml/well | TF ([5]; 20 μM, DMSO = 100): 83% | TF ELISA ([5]; 20 μM, DMSO control 7054): 5858 pg/ml/well | TF [5, 9]: 5791 pg/mL | TF [5, 10]: 5858 pg/mL | VEGF ([3]; 5 μM, DMSO = 100): 22% | VEGF ELISA ([3]; 5 μM): 2235 pg/ml/well | VEGF [3, 11]: 904 pg/mL | VEGF ([3]; 20 μM, DMSO = 100): 0% | VEGF ELISA ([3]; 20 μM): 1603 pg/ml/well | VEGF ([3]; 20 μM, DMSO control 4197): 0 pg/mL | Neutral Red Uptake, % ([4]; 5 μM): 100 % of control | Cell Viability ([4]; 5 μM): 110% | Neutral Red Uptake, % ([4]; 20 μM): 100 % of control | Cell Viability ([4]; 20 μM): 109%

COc1ccc(CNS(=O)(=O)NCc2ccc(OC)c(OC)c2)cc1OC [Compound A277a]
VEGF ([1]; Table 4, 20 μM, DMSO = 100): 146% | VEGF [1, 7]: 27403 ± 3143 pg/mL | VEGF ([2]; Table 4, 20 μM, DMSO = 100): 95% | VEGF [2, 7]: 2007 ± 30 pg/mL

COc1ccc(CC2CCCC(Cc3ccc(OC)c(OC)c3)C2=O)cc1OC (stereo not shown) [C]
VEGF (% of DMSO) ([1]; 20 μM): (110%) | VEGF [1, 6]: 20559 ± 9224 pg/mL | VEGF ([1]; Table 4, 20 μM, DMSO = 100): 110% | VEGF [1, 7]: 20559 ± 9224 pg/mL | VEGF (% of DMSO) ([2]; 20 μM): (82%) | VEGF [2, 8]: 1734 ± 397 pg/mL | VEGF ([2]; Table 4, 20 μM, DMSO = 100): 82% | VEGF [2, 7]: 1734 ± 397 pg/mL

[O-][S+](/C=C\c1ccccc1)/C=C/c1ccccc1 (racemic) [EF14, E,Z3,5-Bisbenzylidenesulfoxide]
VEGF ([3]; 20 μM, DMSO = 100): 36% | Cell Viability ([4]; 20 μM): 86%
